According to patent US20210238173A1, “MITOGEN-ACTIVATED PROTEIN KINASE KINASE 7 INHIBITORS” (Yeda Research and Development Co. Ltd., priority 2018, published 2021):

Key:
MKK7 = target: T1, MKK7 (Homo sapiens, UniProt O14733); assay: In vitro kinase activity assay for MKK7 (Nanosyn); assay type: biochemical; conditions: read-out: MKK7 IC50 in vitro
T1 construct: purchased Nanosyn (contract assay)
T1 sequence (O14733 1-419): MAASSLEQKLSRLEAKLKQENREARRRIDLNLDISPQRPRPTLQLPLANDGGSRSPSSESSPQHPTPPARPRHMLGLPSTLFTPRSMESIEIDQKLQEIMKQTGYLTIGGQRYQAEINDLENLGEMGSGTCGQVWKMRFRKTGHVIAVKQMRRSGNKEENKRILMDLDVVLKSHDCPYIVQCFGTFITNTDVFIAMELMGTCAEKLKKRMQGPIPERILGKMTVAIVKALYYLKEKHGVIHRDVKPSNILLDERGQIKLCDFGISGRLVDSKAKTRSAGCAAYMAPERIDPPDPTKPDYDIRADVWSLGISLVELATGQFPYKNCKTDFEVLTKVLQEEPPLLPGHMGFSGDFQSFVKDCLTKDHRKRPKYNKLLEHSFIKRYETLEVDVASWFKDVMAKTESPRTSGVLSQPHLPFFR
Description: Based on visual inspection of the top 500 predictions, 10 compounds were selected for synthesis and testing (see, Table 1). The “Docking rank” is given in its respective run, whereas four virtual libraries of acrylamides were docked separately, based on the amine precursor for the acrylamide (primary or secondary aliphatic amines, primary or secondary aromatic amines). In vitro kinase activity assay was carried out by Nanosyn, as described below.
In Vitro Activity Assays for MKK7 or MKK4 (Carried by Nanosyn):
Exemplary test compounds, according to some embodiments of the present invention, were diluted in DMSO to a final concentration that ranged from 10 μM to 0.0565 nM, while final concentration of DMSO in all assays was kept at 1%. Reference compound, Staurosporine, was tested in a similar manner. […] After incubation, activity of now activated JNK1 was tested in the presence of 30 μM ATP ATP for 17 h (MKK7) or 4 h (MKK4).

pJNK in HEK293 cells = assay: In-cell western (ICW) pJNK inhibition in HEK293; assay type: cell-based; conditions: 2 h pre-incubation, sorbitol stimulation
Description: (§1) HEK293, Beas2B and 3T3 cells were plated 24 hours before procedure on 384 well clear bottom black flat plates (Corning) pre-coated with Fibronectin (Sigma) diluted in PBS to a concentration of 5 μg/ml 45 minutes prior to cells introduction. Cells were plated using Multidrop™ Combi reagent dispenser (Thermo Fisher Scientific). Compound, reagents and antibody dispensing as well as washes were performed with a CyBio liquid handler (Analytik). Cells were pre-incubated with a small molecule or up to 1% DMSO for 2 h before fixation. HEK293, 3T3 or Beas2B cells were treated with 0.6M/0.2M/0.2M D-Sorbitol/PBS (Sigma) for 20/40/40 min. respectively, before fixation. Media was removed and wells were immediately fixed with 150 μl per well of 3.7% formaldehyde/PBS fixing solution for 20 min. Formaldehyde was then aspired and cells were permeabilized with 150 μl of 0.5% Triton x-100/PBS solution for 10 min. After aspiration cells were washed with ice-cold methanol and stored at −20° C., for 10 min. Methanol was aspired and cells were blocked with 150 μl blocking buffer (LICOR) for 90 min. Primary antibody Phospho-SAPK/JNK T183/Y185 (CST; 9251S) was diluted 1:1000 in blocking buffer and was applied 50 μl per well, except control wells to which only blocking buffer was applied, O.N. (16 h) at 4° C. with mild shaking. Primary antibody was aspired, wells were washed with 150 μl 0.1% Tween20/PBS (Sigma) washing solution three times for 7 min. IRDye® 800CW Goat anti-Rabbit IgG Secondary antibody (LICOR) was then diluted 1:1200 in blocking buffer with 50 μl applied per well on control wells only (no CellTag control), then CellTag700 (1:2000) was added to the solution and 50 μl were added to all experiment wells, for 1 h at room temperature. Wells were aspired and washed again with 150 μl 0.1% Tween20/PBS (Sigma) washing solution three times for 7 min. plate was dried and scanned with Odyssey CLx imaging system at 700 nm and 800 nm (Licor). Wells signals were analyzed with Odyssey software. The signal was normalized by the CellTag700 signal.
(§2) To rapidly assess the cellular activity (EC50) with full dose response curves of the MKK7 covalent inhibitors, according to some embodiments of the present invention, an in-cell western assay was adapted to a 384 well plate format over traditional western blot, and monitored phospho-JNK (pJNK) levels in response to osmotic shock. We first characterized the dynamics of pJNK in response to sorbitol. Sufficient dynamic range for pJNK is achieved at 20 minutes in HEK293 cells and at 40 minutes in 3T3 and Beas2B cells. The compound's activity was assessed by pre-treating cells with either compound or DMSO for 2 hours, followed by Sorbitol stimulation. The response of pJNK, and its substrates, pc-Jun and pATF2, was measured, as well as pP38, which is a substrate of MKK4 but not MKK7, and pERK in HEK293 cells, and the results are presented in Table 5 below.

[1] = Metabolic stability in mouse liver microsomes; assay type: in vitro ADME; conditions: for half-life: mouse, liver microsomes
Source text: (§3) A reference compound, REF1250, was used in this study: […]

[2] = Metabolic stability in rat liver microsomes; assay type: in vitro ADME; conditions: for half-life: rat, liver microsomes
Source text: as §3

[3] = Metabolic stability in dog liver microsomes; assay type: in vitro ADME; conditions: for half-life: dog, liver microsomes
Source text: as §3

[4] = Metabolic stability in monkey liver microsomes; assay type: in vitro ADME
Source text: as §3

[5] = Metabolic stability in human liver microsomes; assay type: in vitro ADME; conditions: for half-life: human, liver microsomes
Source text: as §3

primary mouse B-cells = assay: Primary B-cell activation (CD86+ FACS) in response to LPS; assay type: cell-based; conditions: for inhibition of the CD86+ response: 10 μM, 2 hours pre-incubation
Source text: Compounds Block Activation of Primary Mouse B-Cells:
JNK is known to mediate activation of B-cells in response to lypopolysacharide (LPS) through the TLR4 signaling pathway as well as in response to B-cell receptor activation (stimulated e.g. with an anti-IgM antibody). Primary B-cells were isolated from the spleen of mice and assessed for their B-cell activation, via FACS analysis of CD86+ expression, in response to LPS in the presence or absence of the covalent MKK7 enzyme inhibitors presented herein, as well as a positive control JNK inhibitor, JNK-IN-8.
At 10 μM and 2 hours pre-incubation before stimulation, GO80 was able to inhibit 60% of the CD86+ response.

pJNK in 3T3 WT cells = assay: In-cell western (ICW) pJNK inhibition in 3T3 WT; assay type: cell-based; conditions: for EC50: 3T3 WT, ICW, 2 h pre-incubation, sorbitol stimulation
Description: as §1, §2
Wildtype 3T3 cells, 3T3 MKK7 double knock-out (MKK7^−/−) cells and MKK4/7 double knockouts (MKK4/7^−/−) were used to validate on target activity of the MKK7 covalent inhibitors presented herein.

[6] = Homo sapiens, HEK293, HEK293, ICW

IC50 (MKK7) [µM]	% remaining @ 40 min [1] [%]	half-life [1] [min]	% remaining @ 40 min [2] [%]	half-life [2] [min]	% remaining @ 40 min [3] [%]	half-life [3] [min]	% remaining @ 40 min [4] [%]	half-life [4] [min]	% remaining @ 40 min [5] [%]	half-life [5] [min]	Structure (SMILES)	EC50 (pJNK in HEK293 cells; [6]) [µM]	further results
0.027	–	–	–	–	–	–	–	–	–	–	C=CC(=O)Nc1cccc(-c2n[nH]c3c([N+](=O)[O-])cccc23)c1 [GO29]	> 10	–
0.01	18	11	4	8	1	6	1	5	20	16	C=CC(=O)Nc1cccc(-c2n[nH]c3c2CC(C)(C)CC3)c1 [GO54]	3.3	–
0.064	4	8	40	29	6	9	0	< 5	13	13	C=CC(=O)Nc1cccc(-c2n[nH]c3c2COCC3)c1 [GO55]	> 10	–
0.193	–	–	–	–	–	–	–	–	–	–	C=CC(=O)Nc1cccc(-c2n[nH]c3c2CN(C(=O)OC(C)(C)C)CC3)c1 [GO61]	> 10	–
2.46	–	–	–	–	–	–	–	–	–	–	C=CC(=O)Nc1cccc(-c2n[nH]c3c2CNCC3)c1 [GO64]	> 10	–
0.026	0	< 5	0	< 5	0	< 5	0	< 5	11	12	C=CC(=O)Nc1cc(-c2n[nH]c3ccccc23)ccc1C [GO72]	4.2	–
0.004	0	< 5	2	7	0	< 5	0	< 5	0	< 5	C=CC(=O)Nc1cccc(-c2n[nH]c3c(F)cccc23)c1 [GO88]	1.8	–
0.011	–	–	–	–	–	–	–	–	–	–	C=CC(=O)Nc1cccc(-c2n[nH]c3cc(-c4ccccc4)ccc23)c1 [GO101]	1	–
0.005	0	< 5	17	16	0	< 5	0	< 5	0	< 5	C=CC(=O)Nc1cccc(-c2n[nH]c3cc(Cl)ccc23)c1 [GO106]	3	–
–	–	–	–	–	–	–	–	–	–	–	Cc1cc(NC(=O)c2cccc(NC(=O)/C=C/CN(C)C)c2)ccc1Nc1nccc(-c2cccnc2)n1 [JNK-IN-8, reference compound]	–	inhibition of the CD86+ response (primary mouse B-cells): ~90%
–	0	–	22	–	5	–	18	–	0	–	C=CC(=O)Nc1cc(-c2n[nH]c3ccccc23)ccn1 [PCM475]	–	EC50 (pJNK in HEK293 cells; HEK293, ICW): 0.9 µM; EC50 (pJNK in 3T3 WT cells): 0.3 µM; Halflife [1]: <5 min; Halflife [2]: 18 min; Halflife [3]: 9 min; Halflife [4]: 16 min; Halflife [5]: <5 min; inhibition of the CD86+ response (primary mouse B-cells): ~90%
–	100	–	61	–	100	–	100	–	100	–	C=CC(=O)Nc1cc(C(=O)O)cc(-c2n[nH]c3ccccc23)c1 [PCM476]	–	EC50 (pJNK in 3T3 WT cells): > 10 µM; activity in ICW in 3T3 cells (pJNK in 3T3 WT cells): inactive; Halflife [1]: >40 min; Halflife [2]: >40 min; Halflife [3]: >40 min; Halflife [4]: >40 min; Halflife [5]: >40 min; Halflife ([5]; listed as PCM76): more than 40 min
–	3	–	72	–	71	–	41	–	38	–	C=CC(=O)Nc1cc(C(=O)NC)cc(-c2n[nH]c3ccccc23)c1 [PCM487]	–	EC50 (pJNK in 3T3 WT cells; listed as PCM87): 4.06 µM; Halflife [1]: 8 min; Halflife [2]: >40 min; Halflife [3]: >40 min; Halflife [4]: 33 min; Halflife [5]: 27 min; inhibition of the CD86+ response (primary mouse B-cells): ~90%; IC50 (primary mouse B-cells; full dose response): 4.9 µM
–	–	–	–	–	–	–	–	–	–	–	C=CC(=O)N[C@H]1CCCN(c2[nH]nc3ccccc23)C1 [PCM531]	> 10	activity in ICW in 3T3 cells (pJNK in 3T3 WT cells): inactive
–	–	–	–	–	–	–	–	–	–	–	C=CC(=O)N[C@@H]1CCCN(c2[nH]nc3ccccc23)C1 [PCM532]	> 10	activity in ICW in 3T3 cells (pJNK in 3T3 WT cells): inactive
–	–	–	–	–	–	–	–	–	–	–	C=CC(=O)Nc1cc(C(=O)N(C)C)cc(-c2n[nH]c3ccccc23)c1 [PCM549]	–	EC50 (pJNK in 3T3 WT cells): > 10 µM
